Measured values reported in patent publication US5607836A, “Methods of detecting compounds which bind to the P2U receptor” (The Curators of the University of Missouri, priority 1995, dated 1997).

Tests used:
[1] = system: P2T receptor of K562 cells; test: cytoplasmic free calcium (fura-2) in untransfected or vector-transfected K562 cells; assay type: cell-based, human; settings: untransfected or vector-transfected K562 cells
Source text: (§1) Stable and Transient Transfections. To generate stable transfectants expressing the P2U receptor, K562 cells were transfected by electroporation (F. Toneguzzo et al., Mol. Cell. Biol. 6, 703 (1986)) with the neomycin-resistance plasmid pP2R1. pP2R1 is pRc/CMV containing a ~2.4 kb HindIII-NotI fragment of the P2U receptor cDNA, missing the first 6 nucleotides of the 5' untranslated region of the full length cDNA. control cells were stably transfected with pRc/CMV. Cells were sedimented at 200×g for 5 min at room temperature, rinsed once with phosphate-buffered saline (10 mM NaH2 PO4, pH 7.4, 120 mM NaCl, 5 mM KCl), and resuspended in phosphate-buffered saline at a final concentration of 4×10^7 cells/ml. The cells were chilled on ice for 10 min and then transferred in 0.5 ml aliquots to prechilled electroporation cuvettes. DNA (40 μg of pP2R1 linearized with PvuI) was added to the cell suspension, the cells were subjected to a single electrical pulse (1 kV, 25 μF) and the cuvettes were placed on ice. After 10 min, growth medium was added and the cells were incubated at 37° C. Fresh growth medium supplemented with 0.7 mg/ml G418 was added 48 h […], and the cells were incubated for 2 weeks to select for stable transfectants expressing neomycin resistance. Clonal cell lines were then isolated by transferring single cells to individual wells of a 96-well culture plate: each well contained 0.2 ml of conditioned growth medium filtered from K562 stock cultures, 0.2 ml of fresh growth medium, and 0.4 mg/ml G418. The clonal cell lines were cultured for three to four weeks in growth medium containing 0.4 mg/ml G418 and assayed for P2U receptor, the results shown are from one representative clonal cell line.
(§2) Cytoplasmic Free Calcium Measurements. Cells were sedimented at 200×g for 5 min at room temperature and washed once with 10 ml of Hepes-bufferedsaline (20 mM Hepes, pH 7.4, 120 mM NaCl, 5 mM KCl, 1 mM MgCl2, and 1 mM CaCl2). Washed cells were suspended in Hepes-buffered saline at 5×10^5 cells/ml, and stored (for up to 4 h) at 37° C. The concentration of cytoplasmic free calcium, [Ca^2+ ]i, was measured by dual-excitation spectrofluorometric analysis of cells loaded with fura-2, a fluorescent probe for calcium.

[2] = target: T1, histidine-tagged P2U receptor (P2HIS) (Mus musculus, UniProt P35383); test: cytoplasmic free calcium in K562 cells stably expressing histidine-tagged P2U receptor (P2HIS); assay type: cell-based, murine
Method: as §2
Construction and Purification of the Histidine-tagged P2U Receptor (P2HIS). To produce P2HIS, 70 pmoles of the primers CGCACCATTGCCTTGGTAC (SEQ ID NO:3)(which contains a BstXI site) and […] (SEQ ID NO:4) (which contains an EcoRV site, stop codon, and the hexahistidine coding sequence) were incubated with 50 ng of pP2R, 20 nmoles of each dNTP, 1X reaction buffer (20 mM Tris-HCl, pH 8.2, 10 mM KCl, 6 mM (NH4)2 SO4, 1.5 mM MgCl2, and 0.1% Triton X-100), and H2 O to bring the reaction mixture to a 100 μl volume. […] The reaction mixture was overlayed with 50 μl of mineral oil and subjected to 30 PCR cycles (95° C. for 1.5 min, 55° C. for 1.5 min, and 72° C. for 2 min). The PCR product, a single 400 bp band, was subcloned into the unique BstXI-EcoRV restriction site of pP2R to generate pP2HIS. […]

murine P2U receptor [3] = target: T2, murine P2U receptor (Mus musculus, UniProt P35383); test: intracellular phosphatidylinositol 4,5-bisphosphate (PIP2) in K562 stable transfectants; assay type: cell-based; settings: transient
Source text: as §1, with “Clonal cell lines were then isolated by transferring single cells to individual wells of a 96-well culture plate: each well contained 0.2 ml of conditioned growth medium filtered from K562 stock cultures, 0.2 ml of fresh growth medium, and 0.4 mg/ml G418. The clonal cell lines were cultured for three to four weeks in growth medium containing 0.4 mg/ml G418 and assayed for P2U receptor, the results shown are from one representative clonal cell line.” left out

[4] = target: T1, histidine-tagged P2U receptor (P2HIS); test: PIP2 in K562 cells stably expressing P2HIS; assay type: cell-based, murine
Method: Construction and Purification of the Histidine-tagged P2U Receptor (P2HIS). To produce P2HIS, 70 pmoles of the primers CGCACCATTGCCTTGGTAC (SEQ ID NO:3)(which contains a BstXI site) and […] (SEQ ID NO:4) (which contains an EcoRV site, stop codon, and the hexahistidine coding sequence) were incubated with 50 ng of pP2R, 20 nmoles of each dNTP, 1X reaction buffer (20 mM Tris-HCl, pH 8.2, 10 mM KCl, 6 mM (NH4)2 SO4, 1.5 mM MgCl2, and 0.1% Triton X-100), and H2 O to bring the reaction mixture to a 100 μl volume. […] The reaction mixture was overlayed with 50 μl of mineral oil and subjected to 30 PCR cycles (95° C. for 1.5 min, 55° C. for 1.5 min, and 72° C. for 2 min). The PCR product, a single 400 bp band, was subcloned into the unique BstXI-EcoRV restriction site of pP2R to generate pP2HIS. K562 cells with stable P2HIS expression were produced by subcloning the HindIII-NotI restriction fragment of pP2HIS encoding the histidine-taged P2U receptor cDNA into pRC/CMV and transfecting K562 cells as described for pP2R1. The composition of pP2HIS was verified by DNA sequence analysis.

human P2U receptor = human P2U receptor (Homo sapiens, UniProt P41231); test: inositol phosphate formation in 1321N1 cells expressing LHP2USN; assay type: cell-based; settings: 1321N1 cells expressing LHP2USN pretreated with apyrase
Method: Heteroloqous Expression. A retroviral vector-containing plasmid, pLHP2USN, was constructed by insertion of the cloned CF/T43 cDNA into the EcoRI and XhoI sites of pLXSN (A. Miller and G. Rosman, Biotechniques 7, 980 (1989)). An amphotrophic packaging cell line, PA317, was used to produce the LHP2USN retroviral vector and a control vector containing Neor only (LSN). Clonal human astrocytoma cells 1321N1, UNC strain, generously provided by T. K. Harden (UNC, Chapel Hill, N.C.), were plated at 150,000 cells per 60-mm dish and infected with LHP2USN or LSN (2 hr, 4 ug/ml Polybrene) and after 48 hr selected with 600 ug/ml G418 (Life Technologies, Inc., Gaithersburg, Md., U.S.A.). To assay for receptor activity, intracellular calcium concentration was measured in confluent cells on coverslips by fura-2 fluorescence using microspectrofluorimetry as previously described (S. Mason et al., Br. J. Pharmacol. 103, 1649 (1991)). Measurement of cell inositol phosphate formation was as described by H. Brown et al., Mol. Pharmacol. 40, 648 (1991), in accordance with known techniques.
To test this possibility more directly, we measured inositol phosphate formation. […] We hypothesized that during the lengthy labeling period 1321N1 cells released 5'-nucleotides into the medium in quantities sufficient to "self-activate" the receptor. […] Thus, it appears the cells are persistently stimulated by nucleotides in an autocrine fashion. The mode of release of nucleotides from the astrocytoma cells and the biological consequences of the persistent autocrine activation are unknown. To facilitate comparison with controls, the inositol phosphate studies were performed on cells pretreated with apyrase.

murine P2U receptor [5] = target: T2, murine P2U receptor; test: cytoplasmic free calcium (fura-2) in K562 cells transfected with P2U receptor cDNA; assay type: cell-based; set-up: missing the first 6 nucleotides of the 5' untranslated region of the full length cDNA; expressed in transfected cells; host or cells: K562 human leukemia cells; settings: for increase in [Ca^2+ ]i: K562 cells stably or transiently transfected with P2U receptor cDNA; for time of return of [Ca^2+ ]i to the basal level / time to maximal [Ca^2+ ]i after nucleotide addition: K562 stable or transient transfectants; for effect of depletion of extracellular Ca^2+ by EGTA on nucleotide-mediated increases in [Ca^2+ ]i: stable transfectants
Source text: as §1
To generate transient transfectants, K562 cells were transfected as above with 40 μg unlinearized plasmid pCCM6×1 or pP2R (Lustig et al., supra 1993). Cells were incubated for 48 h at 37° C. in 100 mm culture dishes containing 12 ml of growth medium and assayed for P2U receptor activity.
as §2

T1 sequence (P35383 whole entry): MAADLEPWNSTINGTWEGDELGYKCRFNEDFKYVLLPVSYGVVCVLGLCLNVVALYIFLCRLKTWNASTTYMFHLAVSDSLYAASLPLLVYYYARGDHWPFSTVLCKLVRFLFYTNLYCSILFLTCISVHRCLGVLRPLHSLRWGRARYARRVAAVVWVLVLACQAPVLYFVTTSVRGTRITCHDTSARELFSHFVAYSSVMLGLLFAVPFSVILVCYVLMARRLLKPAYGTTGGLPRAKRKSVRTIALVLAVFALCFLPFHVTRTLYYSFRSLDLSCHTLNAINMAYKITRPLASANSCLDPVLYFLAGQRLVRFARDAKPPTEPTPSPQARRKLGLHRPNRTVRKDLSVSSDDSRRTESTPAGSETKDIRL
T2 sequence (P35383 whole entry): as above
human P2U receptor, sequence (P41231 whole entry): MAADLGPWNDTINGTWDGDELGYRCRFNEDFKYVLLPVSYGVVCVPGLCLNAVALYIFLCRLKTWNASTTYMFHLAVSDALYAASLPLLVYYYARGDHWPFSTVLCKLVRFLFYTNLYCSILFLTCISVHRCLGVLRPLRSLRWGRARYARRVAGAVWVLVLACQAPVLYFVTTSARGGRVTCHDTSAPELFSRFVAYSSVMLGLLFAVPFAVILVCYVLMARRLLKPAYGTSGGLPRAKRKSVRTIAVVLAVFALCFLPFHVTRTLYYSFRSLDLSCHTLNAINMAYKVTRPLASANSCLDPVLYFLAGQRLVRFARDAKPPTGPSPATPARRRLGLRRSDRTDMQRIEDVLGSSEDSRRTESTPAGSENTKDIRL

SMILES	elevation of [Ca^2+ ]i in untransfected or vector-transfected K562 cells [1]	[Ca^2+ ]i in K562 cells stably expressing P2HIS [2]	reduction of intracellular levels of phosphatidylinositol 4,5-bisphosphate (PIP2) (murine P2U receptor [3])	PIP2 in K562 cells stably expressing P2HIS [4]	inositol phosphate accumulation (human P2U receptor)	EC50 (murine P2U receptor [5]) [µM]	increase in [Ca^2+ ]i (murine P2U receptor [5])	time of return of [Ca^2+ ]i to the basal level (murine P2U receptor [5]) [min]	time to maximal [Ca^2+ ]i after nucleotide addition (murine P2U receptor [5]) [s]	effect of depletion of extracellular Ca^2+ by EGTA on nucleotide-mediated increases in [Ca^2+ ]i (murine P2U receptor [5])
O=c1ccn([C@@H]2O[C@H](COP(=O)(O)OP(=O)(O)OP(=O)(O)O)[C@@H](O)[C@H]2O)c(=O)[nH]1 [UTP]	Neither ATP nor UTP elevated [Ca^2+ ]^i	increase in [Ca^2+ ]i	approximately 10%	decrease in PIP2	increased inositol phosphate accumulation	~0.8	two-fold increase	≤ 1	≤ 5	not affected
Nc1ncnc2c1ncn2[C@@H]1O[C@H](COP(=O)(O)OP(=O)(O)OP(=O)(O)O)[C@@H](O)[C@H]1O [ATP]	Neither ATP nor UTP elevated [Ca^2+ ]^i	increase in [Ca^2+ ]i	approximately 10%	decrease in PIP2	increased inositol phosphate accumulation	~1.4	two-fold increase	≤ 1	≤ 5	not affected
